SMILES strings stand for the structures.

Broadly, the IC50 is the point on the concentration scale where inhibition reaches its midpoint. High values mean weaker potency, low ones greater potency.

This assay has as its target Vitamin K-dependent protein C (Homo sapiens) (UniProt P04070). Kind of assay: Inhibition of human APC using pyroGlu-Pro-Arg-p-nitroaniline-HCl as substrate measured after 5 mins by plate reader analysis.

Vitamin K-dependent protein C (Homo sapiens), sequence (P04070 whole entry, looked up): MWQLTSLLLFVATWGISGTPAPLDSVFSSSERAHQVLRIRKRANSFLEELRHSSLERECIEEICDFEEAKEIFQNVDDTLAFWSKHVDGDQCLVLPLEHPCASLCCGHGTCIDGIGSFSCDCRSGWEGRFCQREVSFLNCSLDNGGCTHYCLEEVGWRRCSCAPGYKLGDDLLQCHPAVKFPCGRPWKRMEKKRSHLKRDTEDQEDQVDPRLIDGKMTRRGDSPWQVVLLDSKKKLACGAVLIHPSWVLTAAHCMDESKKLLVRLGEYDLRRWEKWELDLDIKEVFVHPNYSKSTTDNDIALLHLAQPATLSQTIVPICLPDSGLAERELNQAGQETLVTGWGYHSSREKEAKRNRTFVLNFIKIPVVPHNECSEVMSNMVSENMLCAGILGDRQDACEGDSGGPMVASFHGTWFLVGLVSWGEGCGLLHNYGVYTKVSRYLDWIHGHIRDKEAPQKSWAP

With `N#Cc1cccc(C(NCC2CC2)c2ccc(F)c(NC(=O)c3cc(C(F)(F)F)nn3-c3cccc(CN)c3)c2)c1` (single isomer, unassigned; (+)) [(+)-1-(3-(aminomethyl)phenyl)-N-(5-((3-cyanophenyl)(cyclopropyl-methylamino)methyl)-2-fluorophenyl)-3-(trifluoromethyl)-1H-pyrazole-5-carboxamide], the half-maximal inhibitory concentration (IC50) was > 30 µM.

(Values after BindingDB's records for doi:10.1021/acs.jmedchem.1c00511 (2021).)
